This data set in a line: Brain permeability in C57 male mice (plasma and brain tissue concentration). Type of data set: in vivo. As to conditions: mouse; for Kp at 0.5 h / Kp at 2 h: brain/plasma; for Kp at 0.5 h: read-out: Brain/blood concentration ratio at 0.5 h; for Kp at 2 h: read-out: Brain/blood concentration ratio at 2.0 h. As for the experimental part:
• 2. Test of the brain permeability of compound (−)-I-10 administered to C57 male mice by single intragastric administration, intraperitoneal injection and intravenous injection
Using the same method as the pharmacokinetic experiment, 0.030 mL of blood was taken from each animal through the orbit at 0.5 and 2.0 hours, respectively, and anticoagulated with EDTA-K2. Blood samples were placed on ice after collection, and the plasma was separated by centrifugation within 30 minutes (centrifugation conditions: 5000 rpm, 10 minutes, 4° C.) and stored at −80° C. until analysis. After the animal was euthanized by bloodletting, the brain tissue samples were taken, homogenized with 50% methanol according to the body weight of 1:3 (m/v=1:3), and stored at −80° C. before homogenate analysis. The drug concentrations in plasma and brain tissue were analyzed by LC/MS/MS and compared.

[1] abbreviates: ip, intraperitoneal injection 1 mg/kg.

Where two headings read alike, the source gives them in different places.

Take `CN(C)C(=O)N[C@H]1CC[C@H](CCN2CCN3c4cccc5[nH]cc(c45)C[C@H]3C2)CC1` [(−)-I-10]: the concentration at 0.5 h was determined as 219 ± 21 ng/mL (brain, intravenous injection 1 mg/kg, read-out: Drug concentration at 0.5 h in brain); 193 ± 13 ng/mL (brain, ip, intraperitoneal injection 1 mg/kg, read-out: Drug concentration at 0.5 h in brain); 346 ± 217 ng/mL (brain, oral administration 5 mg/kg, read-out: Drug concentration at 0.5 h in brain); 133 ± 19 ng/mL (plasma, intravenous injection 1 mg/kg, read-out: Drug concentration at 0.5 h in plasma); 124 ± 15 ng/mL (plasma, ip, intraperitoneal injection 1 mg/kg, read-out: Drug concentration at 0.5 h in plasma); 231 ± 153 ng/mL (plasma, oral administration 5 mg/kg, read-out: Drug concentration at 0.5 h in plasma). Besides, the concentration at 2 h reads like this: (brain, intravenous injection 1 mg/kg, read-out: Drug concentration at 2.0 h in brain) 77 ± 7 ng/mL; (brain, ip, intraperitoneal injection 1 mg/kg, read-out: Drug concentration at 2.0 h in brain) 42.7 ± 4 ng/mL; (brain, oral administration 5 mg/kg, read-out: Drug concentration at 2.0 h in brain) 169 ± 23 ng/mL; (plasma, intravenous injection 1 mg/kg, read-out: Drug concentration at 2.0 h in plasma) 24.9 ± 5 ng/mL; (plasma, ip, intraperitoneal injection 1 mg/kg, read-out: Drug concentration at 2.0 h in plasma) 13.8 ± 2.7 ng/mL; (plasma, oral administration 5 mg/kg, read-out: Drug concentration at 2.0 h in plasma) 95 ± 16 ng/mL. Besides, the Kp at 0.5 h came out at 1.65 (intravenous injection 1 mg/kg), 1.56 under setting [1] and 1.5 (oral administration 5 mg/kg). Also, the Kp at 2 h is, setting by setting: (intravenous injection 1 mg/kg) 3.09; under setting [1], 3.1; (oral administration 5 mg/kg) 1.78.
